Test results as given in patent US9699976B2, “Direct and indirect organogenesis of Jatropha” (TEMASEK LIFE SCIENCES LABORATORY LTD., priority 2012, dated 2017).

Columns and labels:
[1] = tested on: thin sections of petiole, pedicle, peduncle and rachis explants of Jatropha curcas; test: Shoot bud induction directly from thin sections of explants (direct organogenesis); assay type: cell-based; conditions: only BA and Kn alone in the medium
Procedure: The petiole from 2nd to 4th leaf and pedicle, peduncle and rachis from inflorescence before the onset of flowering were selected as explant for the present study. Explants were initially washed in running tap water for 5 min and followed by wash in chlorohexidine surgical wash (two drops in 100 ml of distilled water) for 10 min to remove the adhering particles on the surface. The explants were surface sterilized in 0.1% HgCl2 for 10 min followed by 3 washes using sterilized distilled water.
The chemicals used in the present study were purchased from Duchefa Biochemie, Haarlem, The Netherlands and Sigma Aldrich, Inc., St Louis, USA. The culture media composed of MS basal salts, B5 vitamins, 3% sucrose and 0.8% agar as solidifying agent. The pH of the media is adjusted to 5.6-5.8 before autoclaving. All the cultures were incubated at 25±2° C. with 16 hr light/8 hr dark photoperiod conditions at a light intensity of 150 μEm^−2s^−1. The culture conditions are same throughout the stages of organogenesis.
The thin sections of all the explants (petiole, pedicle, peduncle and rachis) and the calli initiated from different explants (petiole, pedicle, […]; […]).
Thin sections of explants placed on shoot induction medium expanded and bended towards up and started to produce adventitious buds from the explants within 2 weeks. […]

[2] = tested on: elongated shoots of Jatropha curcas; test: Maturation of elongated shoots on maturation medium; assay type: cell-based; conditions: BA present in maturation medium; abnormal shoot production and in vitro flowering
Procedure: The chemicals used in the present study were purchased from Duchefa Biochemie, Haarlem, The Netherlands and Sigma Aldrich, Inc., St Louis, USA. The culture media composed of MS basal salts, B5 vitamins, 3% sucrose and 0.8% agar as solidifying agent. The pH of the media is adjusted to 5.6-5.8 before autoclaving. All the cultures were incubated at 25±2° C. with 16 hr light/8 hr dark photoperiod conditions at a light intensity of 150 μEm^−2s^−1. The culture conditions are same throughout the stages of organogenesis. […] Elongated shoots were separated from the clump and cultured on the Maturation medium containing Kn (1.17 μM), AdSO4 (135.75 μM), GA3 (0.73 μM) IBA (0.49 μM) and casein hydrolysate (100 mg/l). Well elongated shoots were separated carefully from the clumps and transferred to maturation medium to induce physiological maturity. Most of the shoots culture in the maturation medium reached maturity within 3 weeks whereas some shoots still need additional 3 weeks and were cultured in the same medium to bring physiological maturity.

[3] = tested on: petiole explant of Jatropha curcas; conditions: medium containing 2.27 μM TDZ; Kumar et al. (2011b); cited from earlier work

For `c1coc(CNc2ncnc3[nH]cnc23)c1` [Kn, kinetin], the “effect on shoot bud induction from the tested explants” value [1] was “no effect”.
In the case of `c1ccc(CNc2ncnc3nc[nH]c23)cc1` [BA, 6-benzylaminopurine], the “effect on shoot bud induction from the tested explants” value [1] is reported as “no effect” and the “effect of presence in maturation medium on shoot maturation” value [2] is reported as “hindered maturation”.
In the case of `O=C(Nc1ccccc1)Nc1cnns1` [TDZ, thidiazuron], the “average shoots per 0.5 cm length petiole explant” value [3] is listed as 4.98 shoots per explant and the “response with petiole explant” value [3] is listed as 57.61%.
